These results are taken from US20020127281A1, “Stabilized hyrogen peroxide solutions” (priority 2000, published 2002).

The nature of this data set: stabilization of peroxy compounds by the present stabilizer system. Type of data set: physicochemical. From the text: Trace amounts of peroxy compounds stabilized with a hydrogen peroxide stabilizer, especially diethylene triamine penta(methylene phosphonic acid) or 1-hydroxyethylidene-1,1-diphosphonic acid may be utilized as a preservative for drugs, eyewashes, or other solutions containing an active ingredient designed to be used in the ocular environment. The preservative according to the present invention may be used in the ocular environment. Furthermore, the preservative according to the present invention may be used in any ophthalmic solution as long as the active ingredient in that solution is compatible with trace amounts of the peroxy compounds. Also, virtually any peroxy compound may be used so long as it is hydrolyzed in water to produce hydrogen peroxide. Examples of such sources of hydrogen peroxide, which provide an effective resultant amount of hydrogen peroxide, include sodium perborate decahydrate, sodium peroxide and urea peroxide. […] Hydrogen peroxide concentrations from about 2 ppm to about 1000 ppm are useful in the present invention. Therefore, peroxy compounds that generate hydrogen peroxide from about 2 ppm to about 1000 ppm are useful in the present invention. More preferably, the concentration of hydrogen peroxide from is about 10 ppm to about 1000 ppm.

For `CC(=O)OO` [peracetic acid], the “stabilization by the present system” value is on record as “cannot be stabilized”.
